Measured values reported in article PMC10938783, “A novel pan-PI3K inhibitor KTC1101 synergizes with anti-PD-1 therapy by targeting tumor suppression and immune activation” (Molecular Cancer, 2024).

Tests used:
[1] = Pharmacokinetic study of oral administration; type: in vivo; conditions: mouse, blood, BALB/c male mice, 100 mg/kg p.o.
Protocol: Chromatographic conditions employed a Waters BEH C18 column (2.1 mm × 50.0 mm, 1.7 µm) with a mobile phase comprising acetonitrile with 0.1% formic acid (A) and water with 0.1% formic acid (B), at a flow rate of 0.4 mL/min and a column temperature of 40°C. Gradient elution was used: 0–0.3 min, 20:80 → 20:80 (A:B); 0.3–2.5 min, 20:80 → 60:40 (A:B); 2.5–3.0 min, 60:40 → 100:0 (A:B); 3.0–3.01 min, 100:0 → 20:80 (A:B); 3.01–3.5 min, 20:80 → 20:80 (A:B). Mass spectrometry was performed using electrospray ionization (ESI) in positive ion mode, with a capillary voltage of 1 kV, a desolvation temperature of 450 °C, and a desolvation gas flow of 800 L/h. KTC1101 and internal standard phenacetin parameters were optimized for ionization and collision energies.
KTC1101 was prepared at 1 mg/mL concentration in acetonitrile, and further diluted to create a series of standard solutions. Blood samples were taken from BALB/c male mice (19 ± 2g) at various time points post-oral administration of KTC1101 (100 mg/kg). Samples were processed and analyzed using HPLC coupled with mass spectrometry. Data were calculated using Masslynx 4.1 and DAS 3.0 software.

Acute toxicity study = type: in vivo; conditions: both sexes, mouse, in vivo, oral; BALB/c mice, acute toxicity
Protocol: (§1) All mice care and experimental protocols were approved by the Ethical Committee of Tianjin Medical University (permit number: TMUaMEC 2023036). Preliminary testing was conducted on 6 groups of BALB/c mice (half male, half female, 18–22 g), fasted but not water-deprived for 12 h, and administered different doses of KTC1101 (200 to 6400 mg/kg). […] The LD50 was calculated based on the doses causing 0% and 100% mortality in animals. Subsequent testing was done using doses determined from the preliminary study. Each dose was administered to a single animal, with a 72-h interval between dosages. The administration continued until one of the following criteria was met: (a) three consecutive animals survived; (b) a transition from survival to death occurred in 5 out of 6 consecutive animals; (c) at least four animals were tested after the first transition, with an estimated LD50 range exceeding the critical value (2.5 times). The LD50 and its confidence interval were calculated, and the maximum likelihood method was used to determine the LD50 value using the AOT425StatPgm software.

BALB/c mice = experiment: Acute toxicity study; type: in vivo; conditions: symbols O/X not defined
Protocol: as §1

PI3Kβ (PIK3CB/PIK3R1) = PI3Kβ (PIK3CB/PIK3R1) (Homo sapiens, UniProt P42338); experiment: Adapta kinase assay; type: biochemical
Sequence of PI3Kβ (PIK3CB/PIK3R1) (P42338 whole entry, canonical isoform): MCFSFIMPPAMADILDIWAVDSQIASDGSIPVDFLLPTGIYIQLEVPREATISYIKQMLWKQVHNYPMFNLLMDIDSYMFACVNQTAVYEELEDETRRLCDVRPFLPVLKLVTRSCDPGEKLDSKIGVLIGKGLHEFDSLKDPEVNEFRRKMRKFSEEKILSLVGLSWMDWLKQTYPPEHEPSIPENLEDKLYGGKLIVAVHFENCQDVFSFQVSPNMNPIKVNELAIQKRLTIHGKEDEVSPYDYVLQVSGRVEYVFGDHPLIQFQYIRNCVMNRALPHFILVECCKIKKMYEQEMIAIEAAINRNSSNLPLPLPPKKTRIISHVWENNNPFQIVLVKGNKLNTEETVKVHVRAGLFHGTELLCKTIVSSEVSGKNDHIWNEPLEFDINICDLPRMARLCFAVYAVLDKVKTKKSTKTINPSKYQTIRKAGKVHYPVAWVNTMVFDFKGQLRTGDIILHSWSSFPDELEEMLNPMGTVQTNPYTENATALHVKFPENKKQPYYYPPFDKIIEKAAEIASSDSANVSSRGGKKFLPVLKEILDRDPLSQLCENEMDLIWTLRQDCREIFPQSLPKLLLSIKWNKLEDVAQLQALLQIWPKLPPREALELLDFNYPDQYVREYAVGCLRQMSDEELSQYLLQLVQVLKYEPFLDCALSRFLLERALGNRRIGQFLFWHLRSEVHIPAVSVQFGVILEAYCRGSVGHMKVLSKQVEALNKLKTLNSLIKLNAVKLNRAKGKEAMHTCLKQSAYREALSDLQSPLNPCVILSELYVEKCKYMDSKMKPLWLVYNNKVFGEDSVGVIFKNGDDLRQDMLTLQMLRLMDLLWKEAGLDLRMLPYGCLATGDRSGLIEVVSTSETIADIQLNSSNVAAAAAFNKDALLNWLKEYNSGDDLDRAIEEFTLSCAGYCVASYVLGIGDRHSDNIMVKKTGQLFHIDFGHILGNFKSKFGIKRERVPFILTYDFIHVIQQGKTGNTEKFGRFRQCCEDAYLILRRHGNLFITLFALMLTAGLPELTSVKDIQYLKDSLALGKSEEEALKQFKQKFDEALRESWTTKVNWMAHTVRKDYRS
Sequence of PI3Kβ (PIK3CB/PIK3R1) (P27986 whole entry partner, canonical isoform): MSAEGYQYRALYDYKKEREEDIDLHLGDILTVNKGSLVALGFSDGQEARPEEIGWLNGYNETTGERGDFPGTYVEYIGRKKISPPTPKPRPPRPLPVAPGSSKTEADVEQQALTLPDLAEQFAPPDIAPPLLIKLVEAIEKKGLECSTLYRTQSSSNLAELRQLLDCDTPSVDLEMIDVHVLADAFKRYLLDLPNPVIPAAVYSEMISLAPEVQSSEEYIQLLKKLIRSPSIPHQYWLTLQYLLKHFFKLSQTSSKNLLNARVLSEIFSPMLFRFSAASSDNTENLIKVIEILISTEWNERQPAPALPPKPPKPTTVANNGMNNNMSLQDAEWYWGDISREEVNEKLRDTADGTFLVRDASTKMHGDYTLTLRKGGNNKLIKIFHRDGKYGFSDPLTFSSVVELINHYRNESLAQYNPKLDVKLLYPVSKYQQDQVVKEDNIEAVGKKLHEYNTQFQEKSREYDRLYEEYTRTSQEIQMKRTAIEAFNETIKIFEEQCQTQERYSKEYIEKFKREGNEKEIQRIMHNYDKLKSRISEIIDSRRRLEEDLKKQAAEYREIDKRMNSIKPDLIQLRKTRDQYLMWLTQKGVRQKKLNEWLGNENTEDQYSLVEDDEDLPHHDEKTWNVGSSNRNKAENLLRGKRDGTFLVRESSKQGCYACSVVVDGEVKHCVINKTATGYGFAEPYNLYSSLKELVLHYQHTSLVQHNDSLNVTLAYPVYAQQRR
Protocol: (§2) Procedures for the preparation of KTC1101 are described in supplemental data. To investigate the PI3K inhibitory efficacy of KTC1101, its impact on the kinase activity of PI3K isoforms was assessed using the Adapta kinase assay as previously reported. Initially, a dilution series of 2.5 µL KTC1101 or DMSO (control) was prepared and added to the respective wells of a 384-well plate. Subsequently, optimized 2.5 µL kinase solutions, including PIK3CA/PIK3R1, PIK3CB/PIK3R1, PIK3CG, and PIK3CD/PIK3R1, were introduced to each well. After adding the kinase solutions, 5 µL ATP and PIP2:PS lipid kinase substrate was introduced into each well and incubated for 1 h at room temperature. This step allows for the initiation and progression of the kinase reaction. Following the incubation, a detection solution (5 µL) was added to all the wells. This solution contained 30 mM EDTA to stop the kinase reaction, 6 nM Eu-labeled anti-ADP antibody, and a 3 × concentration of Alexa Fluor® 647 ADP tracer. The EDTA effectively terminates the kinase reaction, while the anti-ADP antibody and ADP tracer are crucial for the detection of ADP produced during the kinase reaction, which correlates with PI3K activity. The plate was then allowed to equilibrate for 30 min at room temperature, ensuring proper binding of the tracer and antibody to the generated ADP. Finally, the fluorescence of each well was measured using a Multi-Mode Microplate Reader (Spark, Tecan). To ascertain the selectivity of KTC1101 for PI3K isoforms and to rule out off-target effects, a kinase panel comprising 50 kinases was tested against KTC1101. This kinase profiling was conducted by Wuhan Heyan Biomedical Technology Co., Ltd.

PI3Kγ (PIK3CG) = PI3Kγ (PIK3CG) (Homo sapiens, UniProt P48736); experiment: Adapta kinase assay; type: biochemical
Sequence of PI3Kγ (PIK3CG) (P48736 whole entry): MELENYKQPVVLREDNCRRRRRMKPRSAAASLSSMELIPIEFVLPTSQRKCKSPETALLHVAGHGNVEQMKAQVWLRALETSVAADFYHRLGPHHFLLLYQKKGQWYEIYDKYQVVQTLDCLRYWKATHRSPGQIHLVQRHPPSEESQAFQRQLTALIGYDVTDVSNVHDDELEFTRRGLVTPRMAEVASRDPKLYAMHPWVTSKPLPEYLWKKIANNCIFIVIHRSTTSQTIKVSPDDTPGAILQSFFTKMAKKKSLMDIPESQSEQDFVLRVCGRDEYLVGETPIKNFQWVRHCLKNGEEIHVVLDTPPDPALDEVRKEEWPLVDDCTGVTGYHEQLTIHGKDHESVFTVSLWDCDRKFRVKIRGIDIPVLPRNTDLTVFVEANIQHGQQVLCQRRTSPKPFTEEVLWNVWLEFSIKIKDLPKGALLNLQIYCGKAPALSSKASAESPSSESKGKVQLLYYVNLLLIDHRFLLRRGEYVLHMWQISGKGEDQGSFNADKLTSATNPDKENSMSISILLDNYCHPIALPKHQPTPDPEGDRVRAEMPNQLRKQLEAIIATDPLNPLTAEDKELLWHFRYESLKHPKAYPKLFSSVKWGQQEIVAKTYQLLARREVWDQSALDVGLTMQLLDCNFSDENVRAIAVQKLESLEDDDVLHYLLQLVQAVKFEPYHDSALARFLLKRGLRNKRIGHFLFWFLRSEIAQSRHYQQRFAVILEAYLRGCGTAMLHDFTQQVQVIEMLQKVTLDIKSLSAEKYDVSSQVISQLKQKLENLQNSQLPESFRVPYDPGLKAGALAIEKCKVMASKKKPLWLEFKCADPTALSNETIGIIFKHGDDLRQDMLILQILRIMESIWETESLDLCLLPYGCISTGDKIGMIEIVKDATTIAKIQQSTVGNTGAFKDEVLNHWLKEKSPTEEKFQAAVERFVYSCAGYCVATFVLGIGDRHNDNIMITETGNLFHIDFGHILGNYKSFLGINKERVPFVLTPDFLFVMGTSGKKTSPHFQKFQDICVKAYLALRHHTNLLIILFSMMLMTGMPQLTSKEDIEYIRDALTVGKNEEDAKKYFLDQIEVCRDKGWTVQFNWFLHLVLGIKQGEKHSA
Protocol: as §2

PI3Kδ (PIK3CD/PIK3R1) = PI3Kδ (PIK3CD/PIK3R1) (Homo sapiens, UniProt O00329); experiment: Adapta kinase assay; type: biochemical
Sequence of PI3Kδ (PIK3CD/PIK3R1) (O00329 whole entry): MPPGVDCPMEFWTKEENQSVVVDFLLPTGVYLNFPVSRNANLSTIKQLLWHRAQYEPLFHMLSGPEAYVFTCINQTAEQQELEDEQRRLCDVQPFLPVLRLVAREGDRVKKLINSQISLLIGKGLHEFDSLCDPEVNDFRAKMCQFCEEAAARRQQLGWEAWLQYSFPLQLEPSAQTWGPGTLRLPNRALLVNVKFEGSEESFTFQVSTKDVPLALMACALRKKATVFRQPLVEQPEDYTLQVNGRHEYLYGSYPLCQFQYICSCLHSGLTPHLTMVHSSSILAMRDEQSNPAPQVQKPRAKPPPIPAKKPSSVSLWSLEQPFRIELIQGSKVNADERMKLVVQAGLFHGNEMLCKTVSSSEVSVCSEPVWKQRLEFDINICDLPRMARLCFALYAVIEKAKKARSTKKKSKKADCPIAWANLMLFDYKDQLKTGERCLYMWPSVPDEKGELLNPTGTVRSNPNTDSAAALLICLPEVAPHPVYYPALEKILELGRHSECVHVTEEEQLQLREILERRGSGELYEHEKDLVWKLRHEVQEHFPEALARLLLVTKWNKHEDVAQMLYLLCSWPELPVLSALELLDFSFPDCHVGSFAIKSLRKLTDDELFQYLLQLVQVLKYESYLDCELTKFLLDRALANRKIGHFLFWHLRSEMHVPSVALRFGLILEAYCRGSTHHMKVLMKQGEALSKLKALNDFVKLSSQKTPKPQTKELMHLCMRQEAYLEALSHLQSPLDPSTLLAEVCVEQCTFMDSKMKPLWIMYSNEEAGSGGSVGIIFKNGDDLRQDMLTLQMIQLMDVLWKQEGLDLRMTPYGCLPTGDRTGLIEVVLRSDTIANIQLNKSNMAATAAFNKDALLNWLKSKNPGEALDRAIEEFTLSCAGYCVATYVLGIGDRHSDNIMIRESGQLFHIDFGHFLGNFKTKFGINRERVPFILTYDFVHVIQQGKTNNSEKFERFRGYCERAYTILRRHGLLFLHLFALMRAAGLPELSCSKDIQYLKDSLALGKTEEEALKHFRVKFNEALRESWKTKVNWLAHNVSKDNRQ
Sequence of PI3Kδ (PIK3CD/PIK3R1) (P27986 whole entry partner): as the sequence (P27986 whole entry partner, canonical isoform) above
Protocol: as §2

PI3Kα (PIK3CA/PIK3R1) = PI3Kα (PIK3CA/PIK3R1) (Homo sapiens, UniProt P42336); experiment: Adapta kinase assay; type: biochemical
Sequence of PI3Kα (PIK3CA/PIK3R1) (P42336 whole entry): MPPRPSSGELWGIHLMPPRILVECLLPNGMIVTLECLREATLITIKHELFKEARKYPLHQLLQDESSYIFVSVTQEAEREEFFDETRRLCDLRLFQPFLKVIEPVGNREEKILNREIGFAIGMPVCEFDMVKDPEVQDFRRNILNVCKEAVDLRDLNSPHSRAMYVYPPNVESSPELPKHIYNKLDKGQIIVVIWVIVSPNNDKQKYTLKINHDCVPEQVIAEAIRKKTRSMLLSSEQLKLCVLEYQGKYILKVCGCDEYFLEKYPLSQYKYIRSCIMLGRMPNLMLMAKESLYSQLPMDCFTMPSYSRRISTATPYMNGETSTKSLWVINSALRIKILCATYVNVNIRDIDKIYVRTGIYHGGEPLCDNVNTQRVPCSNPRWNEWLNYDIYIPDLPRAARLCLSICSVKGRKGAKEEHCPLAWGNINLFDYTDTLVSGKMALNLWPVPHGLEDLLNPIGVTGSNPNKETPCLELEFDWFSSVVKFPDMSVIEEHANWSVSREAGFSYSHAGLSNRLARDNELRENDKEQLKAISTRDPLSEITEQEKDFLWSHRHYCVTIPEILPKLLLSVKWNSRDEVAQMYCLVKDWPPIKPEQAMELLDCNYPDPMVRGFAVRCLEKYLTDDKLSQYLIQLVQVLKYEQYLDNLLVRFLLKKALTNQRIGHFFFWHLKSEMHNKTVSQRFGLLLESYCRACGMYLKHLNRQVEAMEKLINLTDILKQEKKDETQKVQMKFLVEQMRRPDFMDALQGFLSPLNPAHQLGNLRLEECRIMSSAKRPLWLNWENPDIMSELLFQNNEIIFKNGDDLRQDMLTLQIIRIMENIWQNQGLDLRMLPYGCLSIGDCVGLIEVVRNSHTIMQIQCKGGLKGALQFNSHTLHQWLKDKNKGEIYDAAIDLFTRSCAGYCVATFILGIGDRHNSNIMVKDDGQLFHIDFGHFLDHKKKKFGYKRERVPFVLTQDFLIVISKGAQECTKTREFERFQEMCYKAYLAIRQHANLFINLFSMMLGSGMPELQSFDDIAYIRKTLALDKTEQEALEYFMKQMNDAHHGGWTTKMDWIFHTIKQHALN
Sequence of PI3Kα (PIK3CA/PIK3R1) (P27986 whole entry partner): as the sequence (P27986 whole entry partner, canonical isoform) above
Protocol: as §2

[2] = system: PC3 cells gene expression; experiment: RNA-Seq (DEGs, GSEA) of PC3 cells; conditions: 25 nM, 48 h
S24 tumors = experiment: S24 syngeneic model in C57BL/6 mice; type: in vivo, mouse; conditions: S24 in WT C57BL/6 mice, 100 mg/kg daily oral gavage
Protocol: To generate syngeneic mouse models, S24 and B16 cells were subcutaneously injected into the right lateral flank of 4- to 5-week-old male C57BL/6 mice. Tumors were allowed to grow to a volume of 100 mm^3, and then the animals were randomly divided into several groups. For S24 tumor-bearing mice, each group of five mice was treated with either vehicle or KTC1101 (100 mg/kg, PO). Tumor size was measured every 3 d or 4 d until the endpoint. For B16 tumor-bearing mice, each group of five mice was treated with either vehicle, KTC1101 (50 or 100 mg/kg, PO), anti-PD-1 antibody (250 μg per mouse, clone RPM1-14, Bio X cell, IP), or KTC1101 and anti-PD-1 antibody. Tumor size was monitored every other day, and the tumor was harvested at indicated time points for analysis of tumor-infiltrating lymphocytes. The tumor volume was calculated using the following formula: length × width × height/2.

B16 tumors = experiment: B16 syngeneic model in C57BL/6 mice; type: in vivo, mouse

Molecule `COc1cc(N)cc2c1nc(C(F)F)n2-c1nc(N2CCCOCC2)nc(N2CCOCC2)n1` [KTC1101, 2-(difluoromethyl)-4-methoxy-1-(4-morpholino-6-(1,4-oxazepan-4-yl)-1,3,5-triazin-2-yl)-1H-benzo[d]imidazol-6-amine] has an AUC(0-t) [1] of 9330 ng·h/mL, a Cmax [1] of 1660 ng/mL and a Tmax [1] of 0.67 h. For the same molecule, the half-life [1] was 7.19 ± 4.07 h, the CL/F ([1]; read-out: CLz/F (converted)) was 179 mL/min/kg and the Vd/F ([1]; read-out: Vz/F) was 118 ± 85.5 L/kg. For the same molecule, the LD50 at 7 days (Acute toxicity study) was 2140 mg/kg, the Score (BALB/c mice; real dose 1750 mg/kg) was “OOO” and the Score (BALB/c mice; real dose 2275 mg/kg) was “XXX”. For the same molecule, the IC50 (PI3Kβ (PIK3CB/PIK3R1)) was 36.3 nM, the IC50 (PI3Kγ (PIK3CG)) was 17.1 nM and the IC50 (PI3Kδ (PIK3CD/PIK3R1)) was 1.22 nM. The IC50 (PI3Kα (PIK3CA/PIK3R1)) was 3.72 nM, the “expression of genes associated with the PI3K/AKT/mTOR pathway (GSEA)” value [2] was “reduction in the expression of genes” and the “time until relapse was detected” value (S24 tumors) was 18 days. For the same molecule, the “tumor growth over 14 days” value (B16 tumors; B16, 50 mg/kg, daily) was “comparably suppressed tumor growth”, the mouse body weight (B16 tumors; B16, 100 mg/kg 3 days on/4 days off and 50 mg/kg daily, 14 days) was “without significant changes in mouse body weight” and the “tumor growth over 14 days” value (B16 tumors; B16, 100 mg/kg, 3 days on/4 days off) was “comparably suppressed tumor growth”. For the same molecule, the mouse survival (B16 tumors; B16, intermittent regimen 100 mg/kg 3 days on/4 days off vs continuous) was “notably prolonged mouse survival”.
